Reference: patent US20090023704A1, “Novel Compounds 737” (ASTRAZENECA AB, priority 2007, published 2009)

Target: T1, GABAB receptor (GABABR1a/GABABR2 heterodimer) (Homo sapiens, UniProt O75899+Q9UBS5)
T1 construct: expressed in transfected cells
Test: [35S]-GTPγS binding assay, potency of PAM (GABA dose-response curves with and without test compound)
Format: biochemical
Conditions: potency of the positive allosteric modulator; GABA dose-response in presence of test compound
In short: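 Membranes from human GABABR1a/GABABR2-expressing cell lines, one with a GABABR1a-Gαqi5mut fusion, were incubated at 30 °C for 45 min, pH 7.4, with 10 μM GDP and 0.53 nM [35S]-GTPγS. GABA (0.1 nM–1 mM) was added with or without PAM, and EC50 was obtained by 4-parameter logistic fit after filtration and scintillation counting.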

T1 sequence (Q9UBS5 15-961 limits assumed): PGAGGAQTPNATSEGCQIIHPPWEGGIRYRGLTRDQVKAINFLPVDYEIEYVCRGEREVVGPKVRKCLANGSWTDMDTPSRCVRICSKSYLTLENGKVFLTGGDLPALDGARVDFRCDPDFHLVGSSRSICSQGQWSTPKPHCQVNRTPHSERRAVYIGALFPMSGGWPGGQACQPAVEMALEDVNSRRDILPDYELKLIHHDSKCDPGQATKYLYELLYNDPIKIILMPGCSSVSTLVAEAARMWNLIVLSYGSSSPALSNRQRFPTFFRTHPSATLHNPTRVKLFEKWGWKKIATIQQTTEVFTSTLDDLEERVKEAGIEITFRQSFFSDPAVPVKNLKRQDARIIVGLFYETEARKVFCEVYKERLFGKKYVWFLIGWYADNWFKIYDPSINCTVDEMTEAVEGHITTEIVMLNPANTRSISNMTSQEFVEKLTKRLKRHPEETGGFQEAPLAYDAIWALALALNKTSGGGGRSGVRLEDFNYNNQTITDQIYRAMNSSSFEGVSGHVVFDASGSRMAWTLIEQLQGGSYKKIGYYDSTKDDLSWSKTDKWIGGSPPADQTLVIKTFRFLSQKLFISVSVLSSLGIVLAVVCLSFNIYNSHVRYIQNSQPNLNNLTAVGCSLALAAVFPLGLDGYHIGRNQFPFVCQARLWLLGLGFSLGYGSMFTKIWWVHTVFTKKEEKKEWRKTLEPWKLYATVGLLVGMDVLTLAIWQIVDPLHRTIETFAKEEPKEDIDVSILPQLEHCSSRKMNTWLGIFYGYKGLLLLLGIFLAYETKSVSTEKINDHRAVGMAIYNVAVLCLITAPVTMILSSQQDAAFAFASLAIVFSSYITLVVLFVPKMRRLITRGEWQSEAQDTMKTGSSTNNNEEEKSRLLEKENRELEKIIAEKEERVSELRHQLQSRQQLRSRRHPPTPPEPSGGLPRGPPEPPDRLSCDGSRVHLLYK
T1 sequence (O75899 42-941): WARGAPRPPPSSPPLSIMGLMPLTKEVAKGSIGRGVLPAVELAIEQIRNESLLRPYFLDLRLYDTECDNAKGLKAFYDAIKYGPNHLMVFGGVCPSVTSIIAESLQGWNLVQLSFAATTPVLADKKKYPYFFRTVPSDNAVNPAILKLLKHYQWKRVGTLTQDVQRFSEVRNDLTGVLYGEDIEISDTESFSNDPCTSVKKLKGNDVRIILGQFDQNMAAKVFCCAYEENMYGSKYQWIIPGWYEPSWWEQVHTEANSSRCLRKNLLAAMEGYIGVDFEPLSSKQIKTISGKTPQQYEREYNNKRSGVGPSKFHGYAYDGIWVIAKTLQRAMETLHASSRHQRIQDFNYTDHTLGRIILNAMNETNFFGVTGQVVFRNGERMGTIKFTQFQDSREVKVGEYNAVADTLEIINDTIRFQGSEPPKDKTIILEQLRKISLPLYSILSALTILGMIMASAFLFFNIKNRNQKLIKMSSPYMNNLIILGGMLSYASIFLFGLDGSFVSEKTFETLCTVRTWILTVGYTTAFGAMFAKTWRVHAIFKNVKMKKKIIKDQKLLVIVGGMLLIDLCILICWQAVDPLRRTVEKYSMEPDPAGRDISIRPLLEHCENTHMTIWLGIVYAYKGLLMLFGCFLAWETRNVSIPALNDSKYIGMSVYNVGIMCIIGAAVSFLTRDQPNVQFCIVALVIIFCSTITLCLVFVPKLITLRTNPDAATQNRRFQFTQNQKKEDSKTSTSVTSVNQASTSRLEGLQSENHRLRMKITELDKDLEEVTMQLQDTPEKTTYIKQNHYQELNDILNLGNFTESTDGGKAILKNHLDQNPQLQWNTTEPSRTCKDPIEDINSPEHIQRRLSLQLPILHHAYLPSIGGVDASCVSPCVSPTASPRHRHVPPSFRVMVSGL

| Structure (SMILES) | EC50 |
| --- | --- |
| COc1nc2c(c(=O)n(Cc3ccc(Cl)cc3)c(=O)n2CCCC(F)(F)F)n1C [Example 81, 1-(4-chlorobenzyl)-8-methoxy-7-methyl-3-(4,4,4-trifluorobutyl)-3,7-dihydro-1H-purine-2,6-dione] | 11.5 µM |
| CCCn1c(=O)n(Cc2ccc(Cl)cc2)c(=O)c2c1nc(N(C)C)n2C [Example 82, 1-(4-chlorobenzyl)-8-(dimethylamino)-7-methyl-3-propyl-3,7-dihydro-1H-purine-2,6-dione] | 5.6 µM |
| CCCn1c(=O)n(Cc2ccc(Cl)cc2)c(=O)c2c1nc(N1CCC1)n2C [Example 83, 8-azetidin-1-yl-1-(4-chlorobenzyl)-7-methyl-3-propyl-3,7-dihydro-1H-purine-2,6-dione] | 7.8 µM |
| CCCn1c(=O)n(Cc2ccc(Cl)cc2)c(=O)c2c1nc(N1CCN(C)CC1)n2C [Example 87, 1-(4-chlorobenzyl)-7-methyl-8-(4-methylpiperazin-1-yl)-3-propyl-3,7-dihydro-1H-purine-2,6-dione] | 15.6 µM |
| CCCn1c(=O)n(Cc2ccc(Cl)cc2)c(=O)c2c1nc(N(C)CCOC)n2C [Example 91, 1-(4-chlorobenzyl)-8-[(2-methoxyethyl)(methyl)amino]-7-methyl-3-propyl-3,7-dihydro-1H-purine-2,6-dione] | 8.3 µM |
| CCCn1c(=O)n(Cc2ccc(Cl)cc2)c(=O)c2c1nc(N1CCOCC1)n2C [Example 92, 1-(4-chlorobenzyl)-7-methyl-8-morpholin-4-yl-3-propyl-3,7-dihydro-1H-purine-2,6-dione] | 7.1 µM |
| CCCn1c(=O)n(Cc2ccc(Cl)cc2)c(=O)c2c1nc(N1CCC[C@H]1COC)n2C [Example 93, 1-(4-chlorobenzyl)-8-[(2S)-2-(methoxymethyl)pyrrolidin-1-yl]-7-methyl-3-propyl-3,7-dihydro-1H-purine-2,6-dione] | 7.2 µM |
| CCCn1c(=O)n(Cc2ccc(Cl)cc2)c(=O)c2c1nc(N1CCC[C@H]1CN1CCCC1)n2C [Example 94, 1-(4-chlorobenzyl)-7-methyl-3-propyl-8-[(2S)-2-(pyrrolidin-1-ylmethyl)pyrrolidin-1-yl]-3,7-dihydro-1H-purine-2,6-dione] | 9 µM |
| CCCn1c(=O)n(Cc2ccc(Cl)cc2)c(=O)c2c1nc(C(C)O)n2C (stereo not shown) [Example 96, 1-(4-chlorobenzyl)-8-(1-hydroxyethyl)-7-methyl-3-propyl-3,7-dihydro-1H-purine-2,6-dione] | 12.2 µM |

Compounds with a lower EC50, results first:

| EC50 | Structure (SMILES) |
| --- | --- |
| 5.2 µM | COc1nc2c(c(=O)n(Cc3ccc(Cl)cc3)c(=O)n2CCC(F)(F)F)n1C [Example 80, 1-(4-chlorobenzyl)-8-methoxy-7-methyl-3-(3,3,3-trifluoropropyl)-3,7-dihydro-1H-purine-2,6-dione] |
| 5.1 µM | CCCn1c(=O)n(Cc2ccc(Cl)cc2)c(=O)c2c1nc(N1CCC(OC)CC1)n2C [Example 84, 1-(4-chlorobenzyl)-8-(4-methoxypiperidin-1-yl)-7-methyl-3-propyl-3,7-dihydro-1H-purine-2,6-dione] |
| 4.5 µM | CCCn1c(=O)n(Cc2ccc(Cl)cc2)c(=O)c2c1nc(Br)n2C [Example 95, 8-bromo-1-(4-chlorobenzyl)-7-methyl-3-propyl-3,7-dihydro-1H-purine-2,6-dione] |
| 3.7 µM | CCCn1c(=O)n(Cc2ccc(Cl)cc2)c(=O)c2c1nc(N1CCSCC1)n2C [Example 88, 1-(4-chlorobenzyl)-7-methyl-3-propyl-8-thiomorpholin-4-yl-3,7-dihydro-1H-purine-2,6-dione] |
| 3.6 µM | CCCn1c(=O)n(Cc2ccc(Cl)cc2)c(=O)c2c1nc(N1CCCC1)n2C [Example 86, 1-(4-chlorobenzyl)-7-methyl-3-propyl-8-pyrrolidin-1-yl-3,7-dihydro-1H-purine-2,6-dione] |
| 1.9 µM | CCCn1c(=O)n(Cc2ccc(Cl)cc2)c(=O)c2c1nc(N1CCCCC1)n2C [Example 85, 1-(4-chlorobenzyl)-7-methyl-8-piperidin-1-yl-3-propyl-3,7-dihydro-1H-purine-2,6-dione] |
| 1.8 µM | CCCn1c(=O)n(Cc2ccc(Cl)cc2)c(=O)c2c1nc(N(CC)CC)n2C [Example 89, 1-(4-chlorobenzyl)-8-(diethylamino)-7-methyl-3-propyl-3,7-dihydro-1H-purine-2,6-dione] |
